The source made the active and inactive calls. The rule behind the calls is not given here. Where a SMILES comes first, the peptide text is derived from it.

Usually inhibition stands for the share of the control response that was lost under treatment.

Data set [1] can be described thus: Antioxidant activity assessed as ABTS radical scavenging activity at 80 uM after 10 mins relative to control. Format: functional.
Data set [2] in a line: Reducing power of the compound assessed as reducing Fe3+ power at 80 uM using K3Fe(CN)6 in pH 6.6 phosphate buffer relative to control.
Data set [3] deals with HaCaT. Description: Cytotoxicity against human HaCaT cells up to 150 uM by MTT assay relative to control. Format: cell-based. (In general: Tetrazolium dyes change colour on reduction, which living cells bring about.)
In data set [4] the test system is LAD2. Description: Proinflammatory activity in human LAD2 cells assessed as increase in mast-cell degranulation by measuring beta-hexosaminidase release at 0.125 mM preincubated for 30 mins followed 4-nitrophenyl-N-acetyl-beta-D-glucosaminide substrate addition and measured after 90 mins by fluorescence-based microplate reader analysis relative to control. Format: ADME. To be noted: lad2, 1.5 h, 125 µM.

In data set [5] the test system is LAD2. Description: Proinflammatory activity in human LAD2 cells assessed as increase in mast-cell degranulation by measuring beta-hexosaminidase release at 0.25 mM preincubated for 30 mins followed 4-nitrophenyl-N-acetyl-beta-D-glucosaminide substrate addition and measured after 90 mins by fluorescence-based microplate reader analysis relative to control. It counts as ADME. To be noted: lad2, 1.5 h, 250 µM.

For data set [6], the target named is T1, Tyrosinase (Mus musculus) (UniProt P11344).
T1 sequence (whole entry): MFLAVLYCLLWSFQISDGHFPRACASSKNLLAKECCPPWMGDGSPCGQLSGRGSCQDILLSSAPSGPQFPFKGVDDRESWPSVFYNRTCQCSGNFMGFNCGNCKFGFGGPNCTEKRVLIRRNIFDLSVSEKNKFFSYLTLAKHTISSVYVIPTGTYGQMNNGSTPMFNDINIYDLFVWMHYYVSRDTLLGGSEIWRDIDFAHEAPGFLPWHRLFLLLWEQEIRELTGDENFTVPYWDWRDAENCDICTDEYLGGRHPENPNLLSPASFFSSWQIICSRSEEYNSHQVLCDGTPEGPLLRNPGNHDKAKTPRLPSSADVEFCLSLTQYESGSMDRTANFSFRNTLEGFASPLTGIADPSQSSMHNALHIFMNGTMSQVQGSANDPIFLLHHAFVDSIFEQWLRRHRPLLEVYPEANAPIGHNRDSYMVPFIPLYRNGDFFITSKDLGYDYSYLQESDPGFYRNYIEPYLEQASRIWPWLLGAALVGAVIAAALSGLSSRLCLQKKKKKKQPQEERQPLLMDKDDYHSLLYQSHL
Nature of the data set: Inhibition of TYR activity in mouse B16 cells assessed as increase in whitening at 20 uM preincubated for 72 hrs followed L-dopa substrate addition and measured after 4 hrs by fluorescence microscopy. Format: cell-based.

The target in data set [7] is T1, Tyrosinase (Mus musculus). Description: Inhibition of TYR activity in mouse B16 cells 20 uM using L-dopa as substrate after 72 hrs relative to control. It counts as cell-based.
For data set [8], the species on record is Mus musculus. Nature of the data set: Effect on JNK phosphorylation in mouse B16 cells up to 80 uM after 72 hrs by Western blot analysis. Format: cell-based.
Data set [9] concerns Cavia porcellus. Nature of the data set: Protection against UVB-induced pigmentation in Dunkin-Hartley guinea pig assessed as increase in whitening at 1 to 2 mM using PG solvent administered topically post UV radiation for 5 days/week for two consecutive weeks for a total 10 days by Fontana-Masson-staining based assay. Format: functional, organism-based.
Data set [10] is described as follows: Drug uptake in skin dermis of brown guinea pig at 2 mM dosed topically after 30 mins using FITC-labelled compound by H and E staining-based fluorescence microscopy. Format: ADME, organism-based, Cavia porcellus. To be noted: in vivo, topical_or_ocular, 0.5 h, 2000 µM.
Data set [11] is described as follows: Drug uptake in skin basal layer of brown guinea pig at 2 mM dosed topically after 2 to 4 hrs using FITC-labelled compound by H and E staining-based fluorescence microscopy. Format: ADME, organism-based, Cavia porcellus. To be noted: in vivo, topical_or_ocular, 2000 µM.
In data set [12] the target is T2, Tyrosinase (Agaricus bisporus) (UniProt O42713).
T2 sequence (whole entry): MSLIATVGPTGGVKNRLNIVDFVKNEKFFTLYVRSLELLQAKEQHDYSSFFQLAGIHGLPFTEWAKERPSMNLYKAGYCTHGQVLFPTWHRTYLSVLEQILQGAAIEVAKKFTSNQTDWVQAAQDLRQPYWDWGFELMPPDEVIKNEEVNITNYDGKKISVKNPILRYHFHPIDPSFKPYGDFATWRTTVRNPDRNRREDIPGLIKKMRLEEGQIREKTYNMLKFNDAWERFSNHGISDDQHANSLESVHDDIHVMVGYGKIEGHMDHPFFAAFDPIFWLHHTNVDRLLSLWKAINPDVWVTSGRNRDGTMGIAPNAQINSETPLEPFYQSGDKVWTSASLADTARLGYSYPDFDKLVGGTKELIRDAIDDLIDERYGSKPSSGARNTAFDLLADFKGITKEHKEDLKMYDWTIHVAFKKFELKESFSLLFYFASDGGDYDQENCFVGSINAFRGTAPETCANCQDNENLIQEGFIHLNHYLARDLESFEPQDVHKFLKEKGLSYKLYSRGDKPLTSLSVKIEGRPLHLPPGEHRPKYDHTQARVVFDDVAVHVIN
Description: Inhibition of mushroom tyrosinase using L-dopa as substrate assessed as reduction in L-dopa oxidation at IC50 by spectrophotometry.

Data set [13] deals with Cavia porcellus. Nature of the data set: Anti-melanogenic activity in UVB-induced pigmentation Dunkin-Hartley guinea pig model assessed as inhibition of UV-induced melanin production in epidermis basal layer at 1 to 2 mM administered topically using PG solvent 6 hrs before UV radiation every day for 2 weeks by Fontana-Masson-staining based assay. It counts as functional, organism-based.

Data set [14] has as its system Cavia porcellus. Description: Protection against UVB-induced pigmentation in Dunkin-Hartley guinea pig assessed as increase in whitening at 1 to 2 mM using CP hydrogel administered topically post UV radiation for 5 days/week for two consecutive weeks for a total 10 days by Fontana-Masson-staining based assay. It counts as functional, organism-based.

With `CC(C)[C@H](NC(=O)[C@H](CCCNC(=N)N)NC(=O)[C@H](Cc1ccccc1)NC(=O)[C@H](CS)NC(=O)[C@H](CCCNC(=N)N)NC(=O)[C@@H](N)[C@@H](C)O)C(=O)N[C@@H](CS)C(=O)N[C@@H](CO)C(=O)O` (H-TRCFRVCS-OH), the Activity was 63% in data set [1]; 0.31 in [2]; 9% in [3]; 3.87% in [4]; 7.19% in [5]. Also, the inhibition entry in data set [6] and in [12] was “Active” throughout. This compound came in with an inhibition in data set [7] of 25.7%. Further, in data set [8], the outcome was inactive. For the same compound, the result in data set [9], in [13] and in data set [14] was Active. In addition, the Drug uptake entry in [10] was “Active”; in data set [11], “Not Active”.

Values taken from ChEMBL document CHEMBL4325834, “De Novo Molecular Design of a Novel Octapeptide That Inhibits In Vivo Melanogenesis and Has Great Transdermal Ability” (J Med Chem, 2018).
